Data on one molecule can be found in patent publication US7759350B2, “Pyrimidine carboxamides” (Orchid Research Laboratories Ltd., priority 2005, dated 2010).

Common to all, as to assay type: cell-based
Assay [1] concerns IL-6. Kind of assay: In vitro measurement of IL-6 in human PBMC. The settings on record: Conc. 0.1 μM, LPS. In short, it runs like this: (§1)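 Human PBMC (0.5 million/well) preincubated with compound 15 min at 37° C., then stimulated with E. coli LPS (1 μg/ml) for 18 h at 37° C. Cytokine in culture medium quantified by ELISA.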
The test system of assay [2] is IL-1β. As to the kind of experiment: In vitro measurement of IL-1β in human PBMC. The settings on record: Conc. 0.1 μM, LPS. In short, it runs like this: as §1
Assay [3] relates to NCI-H460. Kind of assay: Anti-cancer screen (MTT), NCI-H460. As to conditions: Homo sapiens, NCI-H460; 48 hours, MTT.
For assay [4], the system named is DU145. Kind of assay: Anti-cancer screen (MTT), DU145. As to conditions: Homo sapiens, DU-145, 48 hours.

Molecule `CNc1nc(-c2ccncc2)nc(SC)c1C(=O)Nc1ccc(OC)cc1` [Example 14, N-(4-Methoxyphenyl)-4-(methylamino)-6-(methylthio)-2-pyridin-4-ylpyrimidine-5-carboxamide] registered an inhibition at 0.1 µM in assay [1] of 28.2%. The “IL-1β Inhibition (%)” value in assay [2] is on record as “Not active”. Also, the GI50 in assay [3] stood at 5.15 µM; in assay [4] it was 2.75 µM.

One may read the inhibition as the drop in the measured response relative to a control, in per cent. One may read the GI50 as the concentration at which growth is held to half of that of the control. Low values mean more potent growth inhibition, high ones less potent growth inhibition.
